The text below walks through data of US10669235B2, “Indole derivatives and their use as protein kinase inhibitors” (RESPIVERT LIMITED, priority 2016, dated 2020).

The test system of one data set is MRC5 cells. Briefly: Cell viability assay in MRC5 cells (MTT).
Data set [1] has as its target T1, PDGFRβ (Homo sapiens (Human), UniProt P09619). In words: PDGFRβ enzyme inhibition (ADP-Glo assay). It counts as biochemical.
Data set [2] has as its target T1, PDGFRβ. Briefly: PDGF-BB induced phosphorylation of PDGFRβ in fibroblasts (MRC5, HTRF). It counts as cell-based. The conditions noted are these: MRC5 cells, PDGFBB stimulation; read-out: PDGFBB-induced PDGFRβ phosphorylation in MRC5 cells (IC50).
The next data set is described as follows: PAMPA permeability assay. It counts as in vitro ADME. The conditions noted are these: pH 7, PAMPA; for Papp at 5 h, 10 µM: pH 7, 10 μM.
Data set [3] can be described thus: Pharmacokinetic measurements in rats (i.v., i.t., oral). It counts as in vivo. The conditions noted are these: rat; for concentration at 0.1 h / concentration at 1.5 h / concentration at 6 h / concentration at 24 h: male, CD, lung; for concentration at 0.1 h: read-out: lung concentration (nM) at time 0.1 h; for concentration at 1.5 h: read-out: lung concentration (nM) at time 1.5 h; for concentration at 6 h: read-out: lung concentration (nM) at time 6 h; for concentration at 24 h: read-out: lung concentration (nM) at time 24 h.

[4] abbreviates: mean, n = 2 (nintedanib n = 34).
Setting [5] is: i.t. dose 0.1 (nintedanib 0.42).
[6] abbreviates: i.v. dose 0.1 (nintedanib 0.42).

Counter-ions that a name gives are not always drawn. Like-named read-outs stand apart in the source and are kept apart here.

T1 sequence (P09619 33-1106): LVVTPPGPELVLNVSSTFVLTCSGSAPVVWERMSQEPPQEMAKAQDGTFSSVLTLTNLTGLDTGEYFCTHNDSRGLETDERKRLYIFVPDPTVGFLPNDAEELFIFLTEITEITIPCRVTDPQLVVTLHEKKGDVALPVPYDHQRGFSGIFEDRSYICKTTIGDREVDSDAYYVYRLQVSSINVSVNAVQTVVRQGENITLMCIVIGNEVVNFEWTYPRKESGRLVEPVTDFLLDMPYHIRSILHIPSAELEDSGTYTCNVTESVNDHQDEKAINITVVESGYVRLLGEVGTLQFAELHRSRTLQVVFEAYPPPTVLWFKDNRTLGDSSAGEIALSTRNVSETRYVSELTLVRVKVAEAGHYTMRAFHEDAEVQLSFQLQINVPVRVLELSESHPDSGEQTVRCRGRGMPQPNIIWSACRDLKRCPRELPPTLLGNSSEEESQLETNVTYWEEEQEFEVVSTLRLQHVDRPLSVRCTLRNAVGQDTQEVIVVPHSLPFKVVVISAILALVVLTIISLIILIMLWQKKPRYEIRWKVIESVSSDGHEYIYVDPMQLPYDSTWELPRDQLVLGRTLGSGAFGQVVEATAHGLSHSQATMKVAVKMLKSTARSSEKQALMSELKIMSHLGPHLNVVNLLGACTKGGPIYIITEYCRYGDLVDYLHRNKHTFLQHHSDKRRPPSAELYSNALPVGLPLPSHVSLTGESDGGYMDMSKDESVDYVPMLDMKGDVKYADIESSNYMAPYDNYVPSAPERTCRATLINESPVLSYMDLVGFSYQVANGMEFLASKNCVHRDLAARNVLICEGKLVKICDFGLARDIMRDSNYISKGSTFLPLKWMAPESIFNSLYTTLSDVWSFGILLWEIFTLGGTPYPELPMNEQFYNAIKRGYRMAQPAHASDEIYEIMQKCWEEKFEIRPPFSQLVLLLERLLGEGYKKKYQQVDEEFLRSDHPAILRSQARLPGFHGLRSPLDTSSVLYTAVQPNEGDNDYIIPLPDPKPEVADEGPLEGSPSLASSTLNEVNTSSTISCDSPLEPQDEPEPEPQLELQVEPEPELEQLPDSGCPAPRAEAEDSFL

Turning to `COC(=O)c1cc2c(cc1C)/C(=C(/Nc1ccc(C(=O)NCC3(N(C)C)CCOCC3)cc1)c1ccccc1)C(=O)N2` [Example 36, (Z)-Methyl 3-(((4-(((4-(dimethylamino)tetrahydro-2H-pyran-4-yl)methyl)carbamoyl)phenyl)amino)(phenyl)methylene)-5-methyl-2-oxoindoline-6-carboxylate], in the data set with MRC5 cells, the “Cell viability at 100 nM (%)” value came to 87.3%, the “Cell viability at 300 nM (%)” value turned out to be 77.2% and the “Cell viability at 1000 nM (%)” value is on record as 69.6%. This molecule displayed a Ki at PDGFRβ [1] (setting [4]) of 15.9 nM. For the same molecule, the IC50 on PDGFRβ [2] turned out to be 9.96 nM. In the data set “PAMPA permeability assay”, this molecule displayed a recovery at 5 hr, 10 μM of 77.4% and a Papp at 5 h, 10 µM of 8.96 ×10⁻⁶ cm/s.

As for `COC(=O)c1cc2c(cc1C)/C(=C(/Nc1ccc(C(=O)NCC3(N(C)C)CCC3)cc1)c1ccccc1)C(=O)N2` [Example 40, (Z)-Methyl 3-(((4-(((1-(dimethylamino)cyclobutyl)methyl)carbamoyl)phenyl)amino)(phenyl)methylene)-5-methyl-2-oxoindoline-6-carboxylate, 0.3 formate], in the data set with MRC5 cells, the “Cell viability at 100 nM (%)” value is listed as 95.4%, the “Cell viability at 300 nM (%)” value amounted to 88% and the “Cell viability at 1000 nM (%)” value stood at 82.9%. The Ki on PDGFRβ [1] (setting [4]) was 12.8 nM. The IC50 on PDGFRβ [2] is 13.4 nM. In the data set “PAMPA permeability assay”, the recovery at 5 hr, 10 μM came to 56% and the Papp at 5 h, 10 µM is 26.5 ×10⁻⁶ cm/s.

On to `COC(=O)c1cc2c(cc1C)/C(=C(/Nc1ccc(C(=O)NCCN3CCN(C)CC3)cc1)c1ccccc1)C(=O)N2` [Example 4, (Z)-Methyl 5-methyl-3-(((4-((2-(4-methylpiperazin-1-yl)ethyl)carbamoyl)phenyl)amino)(phenyl)methylene)-2-oxoindoline-6-carboxylate], for which the Ki at PDGFRβ [1] (setting [4]) came to 11.6 nM. In addition, the IC50 on PDGFRβ [2] came to 14 nM. In data set [3] (iv), the concentration at 0.1 h is 959 nM, the concentration at 1.5 h is 641 nM, the concentration at 6 h came to 156 nM and the concentration at 24 h came to 88 nM. In data set [3] (other: intra-tracheal), the concentration at 0.1 h worked out at 3490 nM, the concentration at 1.5 h was found to be 1210 nM, the concentration at 6 h was determined as 475 nM and the concentration at 24 h turned out to be 370 nM. Besides, in data set [3] (setting [5]), the “BAL % administered dose at time 0.1 h” value is on record as 3.4%, the “BAL % administered dose at time 1.5 h” value came out at 0.4%, the “BAL % administered dose at time 6 h” value is reported as 0.4% and the “BAL % administered dose at time 24 h” value worked out at 0.3%. Also, in data set [3] (setting [6]), the “BAL % administered dose at time 0.1 h” value stood at 0.07%, the “BAL % administered dose at time 1.5 h” value was found to be 0.04%, the “BAL % administered dose at time 6 h” value was “BQL” and the “BAL % administered dose at time 24 h” value is “BQL”. Also, in “PAMPA permeability assay”, the recovery at 5 hr, 10 μM worked out at 76% and the Papp at 5 h, 10 µM was 0.0216 ×10⁻⁶ cm/s.

Consider `COC(=O)c1cc2c(cc1C)/C(=C(/Nc1ccc(C(=O)NCCN(C)C)cc1)c1ccccc1)C(=O)N2` [Example 2, (Z)-Methyl 3-(((4-((2-(dimethylamino)ethyl)carbamoyl)phenyl)amino)(phenyl)methylene)-5-methyl-2-oxoindoline-6-carboxylate, formate], for which, in the data set on MRC5 cells, the “Cell viability at 100 nM (%)” value is listed as 94%, the “Cell viability at 300 nM (%)” value worked out at 91% and the “Cell viability at 1000 nM (%)” value stood at 68.5%. This molecule gave a Ki at PDGFRβ [1] of 11.1 nM. Moreover, the IC50 on PDGFRβ [2] was found to be 36.7 nM.

With `COC(=O)c1cc2c(cc1C)/C(=C(/Nc1ccc(C(=O)NCCN3CCCNC(=O)C3)cc1)c1ccccc1)C(=O)N2` [Example 56, (Z)-Methyl 5-methyl-2-oxo-3-(((4-((2-(3-oxo-1,4-diazepan-1-yl)ethyl)carbamoyl)phenyl)amino)(phenyl)methylene)indoline-6-carboxylate], in the data set with MRC5 cells, the “Cell viability at 100 nM (%)” value was 100.0%, the “Cell viability at 300 nM (%)” value is reported as 104.9% and the “Cell viability at 1000 nM (%)” value came out at 102.0%. For the same molecule, the affinity on PDGFRβ [1] (setting [4]) corresponds to a Ki of 12.6 nM. The IC50 at PDGFRβ [2] amounted to 9.16 nM.
